The numbers were not newly measured in PMC7327225 (Hepatology Communications, 2020), which cites them from elsewhere.

The series concerns β1‐containing AMPK trimers. The following applies: explains failure to activate AMPK in muscle.

As for `O=C(O)c1c[nH]c2cc(Cl)c(-c3ccc(C4(O)CCC4)cc3)cc12` [PF‐06409577], the AMPK isoform selectivity result is listed as “selectivity toward β1‐containing AMPK trimers”.
